As a reminder, the IC50 is the point on the concentration scale where inhibition reaches its midpoint.

Here are results for 8 compounds from patent publication US5556857A, “Disturbance-of-consciousness improving agent” (priority 1991, dated 1996).

Like-named read-outs stand apart in the source and are kept apart here.

Series [1] concerns mouse model of coma following head injury. Briefly: Evaluation of disturbance-of-consciousness improving effect in a mouse model of coma following head injury. The format is in vivo. As to conditions: Oral, 30 mg/kg.
Series [2] concerns the target sigma receptor. Description: Binding affinity for the sigma receptor ([3H]-DTG binding test). The following applies: [3H]-DTG 3 nM, rat whole brain membrane, 25° C., 60 minutes; ± SED; read-out: Inhibitory activity IC50. Details: species or system Wistar strain male rat. On the procedure: Binding affinity for the sigma receptor
A membrane fraction was prepared and a [^3 H]-1,3-di[2-tolyl]guanidine (DTG) binding test was performed, both by the method of Wettstein et al. [Wettstein, J. F., Romman, F. J., Rocher, M. N. and Junien, J. L., Psychopharmacology, 104, 157-163 (1991)]. Thus, a Wistar strain male rat was decapitated and the whole brain was excised and homogenized in 30 volumes of ice-cooled 50 mM Tris hydrochloride buffer (pH 7.4). The homogenate was then centrifuged at 4° C. and 50,000 g for 15 minutes. The sediment obtained was suspended in one volume of the same buffer as mentioned above and, after 45 minutes of incubation at 37° C., the suspension was centrifuged again. The sediment obtained was suspended in one volume of the same buffer and the suspension was stored frozen at -80° C. until use.
The binding experiment was performed as follows. […]
The filter was transferred to a vial and after addition of 5 ml of a liquid scintillation cocktail (Aquasol 2), the vial was allowed to stand in the dark for a predetermined time. The radioactivity was then measured using a scintillation counter. The amount of specific binding was determined by subtracting the binding amount in the presence of 10 μM haloperidol from the total binding amount. The IC50 values were calculated by computer analysis using the nonlinear least squares method.

Series [3] has as its system sigma receptor. Description: Antagonistic experiment with sigma receptor antagonists on the disturbance-of-consciousness improving effect. The following applies: 10 mg/kg, alone. The format is in vivo. The method, then:
Antagonistic experiment with sigma receptor antagonists
Whether the improving effect of sigma receptor agonists on impaired consciousness is due to their effect on specific receptors was investigated using test compounds 14 and 15 which are sigma receptor antagonists. […] Similarly, the disturbance-of-consciousness improving effect of test compounds 10 and 12 was inhibited by 30 mg of another sigma receptor antagonist test compound 15.

For series [4] the following is noted: literature; cited from earlier work.
The conditions of series [5]: literature (Brain and Nerve, 39:983-990, 1987); cited from earlier work.
The subject of a further series is sigma receptors. The following applies: cited from earlier work.

With `COc1cccc(N2CCN(CCCN3C(=O)CCc4c(Cl)cccc43)CC2)c1` [Example 2], in series [1], the “RR time (time to recovery of righting reflex)” value was 28 % of control and the “SM time (time to recovery of spontaneous mobility)” value was 28 % of control. In addition, on sigma receptor [2], the half-inhibitory concentration (IC50) is 130 ± 16 nM.

Regarding `COc1cccc2c1CCC(=O)N2CCCN1CCN(c2cccc(Cl)c2)CC1.Cl` [Test compound 1, 1-{3-[4-(3-Chlorophenyl)-1-piperazinyl]propyl}-5-methoxy-3,4-dihydrocarbostyril hydrochloride], in series [1], the “RR time (time to recovery of righting reflex)” value is given as 20 % of control and the “SM time (time to recovery of spontaneous mobility)” value is 20 % of control. Moreover, at sigma receptor [2], the IC50 amounted to 340 ± 110 nM. In the series with sigma receptor [3], this compound registered an RR time of 32 % control and an SM time of 38 % control.

For `CC(=O)OCC[N+](C)(C)C` [acetylcholine], the side effects result in series [4] is “serious side effects”.

As to `O=C(CCCN1CCC(O)(c2ccc(Cl)cc2)CC1)c1ccc(F)cc1` [haloperidol], the “effect on impaired consciousness” value in series [5] was “delays recovery from coma”. For the same compound, the “affinity for sigma receptors” value in the series with sigma receptors is reported as “have affinities for these receptors”. Further, the side effects result in series [4] is on record as “dystonia”.

As to `CN[C@@H](C)Cc1ccccc1` [methamphetamine], the “effect on impaired consciousness” value in series [5] is “improves impaired consciousness”. In addition, in series [4], the side effects entry was “may produce an addictive behavior as well as schizophrenic responses such as hallucinations and delusion”.

Take `CC[C@@H](CO)NC(=O)[C@@H]1C=C2c3cccc4c3c(cn4C)C[C@H]2N(C)C1` [methysergide]: the “effect on impaired consciousness” value in series [5] is “improves impaired consciousness”.

As for `c1ccc(C2(N3CCCCC3)CCCCC2)cc1` [phencyclidine], the “affinity for sigma receptors” value in the series with sigma receptors (literature) is on record as “having an affinity for sigma receptors”. In addition, the side effects entry in series [4] was “induces schizophrenic responses such as hallucinations and delusion”.

Take `CNC(=O)Oc1ccc2c(c1)[C@]1(C)CCN(C)[C@@H]1N2C` [physostigmine]: the “effect on impaired consciousness” value in series [5] is “effective in improving disturbances of consciousness at low non-toxic doses”.
